Laboratory results: US4562190A, “Benzothiazolone derivatives, processes for preparation thereof and pharmaceutical compositions comprising the same” (Fujisawa Pharmaceutical Co., Ltd., priority 1983, dated 1985)
Read-outs that look alike come from different tables or passages of the source.

How the values were obtained:
blood pressure = experiment: Antihypertensive activity (DOCA-treated, uninephrectomized rats, oral); format: in vivo, male Wistar rats; conditions: dose 1.0 mg/kg, DOCA/saline uninephrectomized rats, mean blood pressure 150-200 mmHg
Procedure: Five-week old male Wistar rats were uninephrectomized under anesthesia. Deoxycorticosterone acetate (DOCA) (30 mg/kg), suspended in peanut oil, was injected subcutaneously twice a week and 1% saline was substituted for the drinking water. Animals with mean blood pressure 150-200 mmHg were used for experiment between 5 and 7 weeks after surgery.
The test compound was administered orally. Blood pressure was measured at the femoral artery by means of a pressure transducer and recorded as electrically integrated values of mean arterial pressure.

[1] = system: left ventricular pressure (dp/dt max) and heart rate; experiment: Cardiotonic activity (anesthetized dogs, i.v.); format: in vivo, Mongrel dogs; conditions: dosage 1 mg/kg (printed "1."), injected into femoral vein; pentobarbital-anesthetized dogs; vs predosing period
Procedure: Mongrel dogs of either sex were anesthetized with sodium pentobarbital, 35 mg/kg, i.p.. The animals were allowed to breathe spontaneously. The left carotid artery was isolated and a catheter (USCI, #8F) filled with heparinized saline was inserted and advanced into the left ventricle. The catheter was connected to a pressure transducer (Nihonkohden, MPU-0.5A) to measure the left ventricular pressure, from which dp/dt max was derived by analog computing. To measure the systemic blood pressure the left femoral artery was cannulated. The blood pressure pulses was used to trigger a heart rate meter. Another catheter was positioned in the vena cave through right femoral vein for injection of drug. Systemic blood pressure, left ventricular pressure, dp/dt max and heart rate were recorded simultaneously on a polygram (Nihonkohden, RJG-4008).
Test compound was dissolved in dimethyl sulfoxide (0.04 ml/kg) and injected into the femoral vein. The parameters after dosing were compared with those during the predosing period.
Test results were represented in terms of percentage of dp/dt max changes (dp/dt M.C.) and percentage of heart rate changes (H.R.C.) calculated by following formulae. [formula]

platelet aggregation = experiment: Inhibitory activity on platelet aggregation; format: cell-based; conditions: Oryctolagus cuniculus, rabbit platelet rich plasma, 37° C.
Procedure: Platelet rich plasma (PRP) which contains 6.5-7.5×10^8 platelet/ml was prepared from rabbit blood. To the 200 μl of PRP, 5 μl of calcium chloride (1mM) and 50 μl of pH 7.4 Tris-acetate solution (5 mM) containing 120mM NaCl and test compound was added successively, and then stirred for 2 min. at 37° C. To the solution 5 μl of adenosine diphosphate (ADP) (2.5 μM) or collagen (2.5 μg/ml) was added as an aggregation inducer. Aggregation was measured by using an aggregometer (NKK HEMA TRACER 1).

In the case of `CC1CC(=O)NN=C1c1ccc2sc(=O)n(C)c2c1` (centres unmarked) [test compound .circle.1, 3-Methyl-5-(4-methyl-6-oxo-1,4,5,6-tetrahydro-3-pyridazinyl)benzothiazolone], the “Effect Max (mean ratio of maximum decrease of blood pressure)” value (blood pressure) is reported as 63%.

For `CCOC(=O)Cn1c(=O)sc2ccc(C3=NNC(=O)CC3C)cc21` (centres unmarked) [test compound .circle.2, 3-Ethoxycarbonylmethyl-5-(4-methyl-6-oxo-1,4,5,6-tetrahydro-3-pyridazinyl)benzothiazolone], the “H.R.C. (percentage of heart rate changes)” value [1] was 22% and the “dp/dt M.C. (percentage of dp/dt max changes)” value [1] was 63%.

With `CC1CC(=O)NN=C1c1ccc2sc(=O)[nH]c2c1` (centres unmarked) [test compound .circle.3, 5-(4-Methyl-6-oxo-1,4,5,6-tetrahydro-3-pyridazinyl)benzothiazolone] the IC50 (platelet aggregation; inducer ADP (2.5 μM), read-out: ID50, ADP) was 61 nM and the IC50 (platelet aggregation; inducer collagen (2.5 μg/ml), read-out: ID50, Collagen) was 35 nM.
